Measurements: ChEMBL document CHEMBL1121807, “Potential thyroliberin affinity labels. 1. Chloroacetyl-substituted phenylalanylpyrrolidines” (1981)

Key:
Rattus norvegicus [1] = organism: Rattus norvegicus; assay: Agonist activity relative to TRH (Thyroliberin) was evaluated in rat; none at a dose up to 30 ug; format: functional, organism-based
Rattus norvegicus [2] = organism: Rattus norvegicus; assay: Agonist activity relative to TRH (Thyroliberin) was evaluated in rat; format: functional
Rattus norvegicus [3] = organism: Rattus norvegicus; assay: Agonist activity relative to TRH (Thyroliberin) was evaluated in rat at a dose of 0.6 ng; format: functional
Rattus norvegicus [4] = organism: Rattus norvegicus; assay: Agonist activity relative to TRH (Thyroliberin) was evaluated in rat; None at a dose up to 30 ug; format: functional, organism-based

With `C[C@H](NC(=O)c1cccc(C(=O)CCl)c1)C(=O)N[C@@H](Cc1ccccc1)C(=O)N1CCCC1` as the molecule, how does the Relative activity (Rattus norvegicus [1]) read?
Its Relative activity is “None”.

`O=C(CCl)c1ccc(C(=O)NC(Cc2ccccc2)C(=O)N2CCCC2)cc1` (configuration not stated) was tested. Which Relative activity (Rattus norvegicus [2]) did it give?
Its Relative activity is 0.0006%.

Which Relative activity (Rattus norvegicus [3]) does the source give for `NC(=O)[C@@H]1CCCN1C(=O)[C@H](Cc1c[nH]cn1)NC(=O)[C@@H]1CCC(=O)N1` [PROTIRELIN] here?
Its Relative activity is 100%.

With `O=C(CCl)NC(Cc1ccccc1)C(=O)N1CCCC1` (configuration not stated) as the molecule, how does the Relative activity (Rattus norvegicus [4]) read?
The Relative activity was “None”.

`C[C@H](NC(=O)c1ccc(C(=O)CCl)cc1)C(=O)N[C@@H](Cc1ccccc1)C(=O)N1CCCC1` was tested. Which Relative activity (Rattus norvegicus [2]) did it give?
The Relative activity was 0.005%.

With `C[C@H](NC(=O)CCl)C(=O)N[C@@H](Cc1ccccc1)C(=O)N1CCCC1` as the molecule, how does the Relative activity (Rattus norvegicus [4]) read?
Its Relative activity is “None”.

`O=C(CCl)c1cccc(C(=O)NC(Cc2ccccc2)C(=O)N2CCCC2)c1` (configuration not stated) was tested. Which Relative activity (Rattus norvegicus [2]) did it give?
Its Relative activity is 0.0012%.
